Experimental data taken from publication PMC6514812, “[^18F]Fluoroethyltriazolyl Monocyclam Derivatives as Imaging Probes for the Chemokine Receptor CXCR4” (Molecules, 2019).
Where two headings read alike, the source gives them in different places. Non-standard residues stand in square brackets, D forms with d. Residues, ends and D or L forms follow the SMILES beside them. Groups on a side chain read outwards from the residue. *: point of attachment. DOTA = O=C(O)CN1CCN(CC(=O)O)CCN(CC(=O)*)CCN(CC(=O)O)CC1; 2Nal = N[C@@H](Cc1ccc2ccccc2c1)C(=O)O; dNMeOrn = CN[C@H](CCCN)C(=O)O; 4Amb = NCc1ccc(C(=O)O)cc1

Experiments:
[1] = Biodistribution in mice bearing bilateral PC3-WT/PC3-CXCR4 xenograft tumors; type: in vivo, BALB/c mice
Experimental: (§1) All animal studies were approved by the Institutional Animal Care and Use Committee of Weill Cornell Medicine (Protocol Number: 2015-0066) and were undertaken in accordance with the guidelines set forth by the USPHS Policy on Humane Care and Use of Laboratory Animals. Animals were housed under standard conditions in approved facilities with 12 h light/dark cycles. Food and water was provided ad libitum throughout the course of the studies. Hairless 6-to-8-week old male BALB/c inbred athymic nude mice (Jackson Laboratory, Bar Harbor, ME, USA) were inoculated bilaterally with 0.2 mL of a 1:1 mixture of 10^7 PC3-CXCR4 cells in PBS and Matrigel (Corning, Tewksbury, MA, USA) subcutaneously in the left shoulder and 0.2 mL of a 1:1 mixture of 10^7 PC3-WT cells in PBS and Matrigel subcutaneously in the right shoulder. Imaging and biodistribution studies were performed three weeks post-implantation, when tumors were approximately 100–300 mm^3.
(§2) For the biodistribution studies, tumor-bearing animals (n = 5/compound/time point) were injected intravenously with 50–100 μL of a 9% v/v EtOH/saline solution containing approximately 1.1 MBq of the radioligand. […] The mice were euthanized at 1 or 2 h p.i. and tissues including blood, heart, lungs, liver, small intestine, large intestine, stomach (with contents), spleen, pancreas, kidneys, muscle, bone, PC3-WT tumors, PC3-CXCR4 tumors, and tail were collected. All organs were weighed and placed in test tubes for counting in a Wizard^2 Gamma Counter (PerkinElmer, Waltham, MA, USA). For comparison, 1% injected activity standards were prepared and counted along with the tissue samples. The tails were counted to correct for any dose extravasation. Activity in each tissue was corrected for decay and for injected activity and expressed as percent injected dose per gram of tissue (%ID/g) ± standard error.

[2] = tested on: PC3-CXCR4 xenograft tumors; experiment: as above; type: in vivo, BALB/c mice
Experimental: as §1, §2

CXCR4 [3] = molecular target: T1, CXCR4 (Homo sapiens, UniProt P61073); experiment: Competition binding assay vs [^68Ga]Pentixafor in PC3-CXCR4 cells; details: for Hill Slope, Competitive Binding Experiment: vs [^68Ga]Pentixafor, value ± SD; for IC50: vs 100 nM [^68Ga]Pentixafor, PC3-CXCR4 cells, 60 min 37 °C
T1 construct: expressed in transfected cells; host or cells: PC3 (human prostate cancer) cells stably transduced with CXCR4
T1 sequence (P61073 whole entry): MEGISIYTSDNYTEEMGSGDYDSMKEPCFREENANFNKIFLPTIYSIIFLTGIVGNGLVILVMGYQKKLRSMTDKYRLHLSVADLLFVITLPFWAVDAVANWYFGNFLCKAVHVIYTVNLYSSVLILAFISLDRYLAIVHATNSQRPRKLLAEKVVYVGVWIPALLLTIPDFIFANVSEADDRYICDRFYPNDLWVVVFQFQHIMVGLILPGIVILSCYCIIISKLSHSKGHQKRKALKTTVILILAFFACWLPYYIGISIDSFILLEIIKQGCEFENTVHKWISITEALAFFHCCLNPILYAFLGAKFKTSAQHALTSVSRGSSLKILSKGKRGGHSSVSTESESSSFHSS
Experimental: PC3-CXCR4 cells were plated in 12-well plates at a density of 500,000 cells per well and incubated for 48 h at 37 °C/5% CO2. Prior to the binding assay the cells were incubated in fresh media and 370–555 kBq of [^68Ga]Pentixafor or [^18F]RPS-544 was added to each well. The corresponding concentration of [^68Ga]Pentixafor in each well was 100 nM, and the concentration of [^18F]RPS-544 was approximately 5 pM. Then non-radioactive ligands were added to give a final ligand concentration in the range 0.001–10,000 nM. A total of eight concentrations were studied, and each concentration was tested in triplicate. The cells were incubated for 60 min at 37 °C/5% CO2. The media was removed under suction, the cells were washed with cold PBS 1X and detached and transferred to tubes for counting in 1 M NaOH. The cells were counted in a Wizard^2 Gamma Counter (PerkinElmer, Waltham, MA, USA). Non-specific binding was subtracted, and the IC50 values were determined by assuming a simple competitive binding interaction and fitting the data to a sigmoidal Hill plot in Origin 9.0 (OriginLab, Northampton, MA, USA). Potencies are expressed as IC50 ± standard deviation (Supplemental Data, Figure S7).

CXCR4 [4] = molecular target: T1, CXCR4; experiment: Saturation binding assay in PC3-CXCR4 cells; details: for Kd: saturation binding, PC3-CXCR4 cells; for Hill Slope, Saturation Binding Experiment: value ± SD
Experimental: To determine the dissociation constants, saturation binding assays were performed in the PC3-CXCR4 cells. The cells were plated as described above, and approximately 5 nM of the radioligand was added to each well. Then the corresponding non-radioactive ligand was added to give a final concentration in the range 0.001–10,000 nM. A total of eight concentrations were tested, and each concentration was tested in triplicate. The samples were washed and counted as described above. Non-specific binding was subtracted, and Kd values were determined by performing a nonlinear one site binding curve fit with equation y = (Bmax · x)/(Kd + x). Values are expressed as Kd ± standard deviation (Supplemental Data, Figure S8).

PC3-CXCR4 cells = experiment: Cell-associated activity in PC3-CXCR4 cells; type: cell-based, human; details: 1 h
Experimental: Maximum cell-associated activity was calculated by subtracting the cell uptake of the radioactive ligand at the highest non-radioactive ligand concentration of 10 µM (which we considered to be non-specific uptake/binding) from the cell uptake at the lowest non-radioactive ligand concentration of 10^−5 µM.

[5] = 1 h p.i., blocked by co-injection of 5 mg/kg AMD-3100

## CN1C(=O)[C@@H](Cc2ccc(O)cc2)NC(=O)CNC(=O)[C@H](Cc2ccc3ccccc3c2)NC(=O)[C@H](CCCNC(=N)N)NC(=O)[C@H]1CCCNC(=O)c1ccc(CNC(=O)CN2CCN(CC(=O)O)CCN(CC(=O)O)CCN(CC(=O)O)CC2)cc1 (68Ga complex, metal not drawn) [Pentixafor, reference compound] (cyclo([dY][dNMeOrn]([4Amb-DOTA])R[2Nal]G))
[1]; male, BALB/c athymic nude, mouse, PC3-CXCR4 tumor and PC3-WT tumor, iv, total radioactivity, 1 h p.i., read-out: PC3-CXCR4 Tumor-to-Tissue Ratio PC3-WT
  tissue to tissue ratio at 1 h: 2 ± 0.2
[1]; male, BALB/c athymic nude, mouse, PC3-CXCR4 tumor and PC3-WT tumor, iv, total radioactivity, 2 h p.i., read-out: PC3-CXCR4 Tumor-to-Tissue Ratio PC3-WT
  tissue to tissue ratio at 2 h: 2.8 ± 0.1
[1]; male, BALB/c athymic nude, mouse, PC3-CXCR4 tumor and blood, iv, total radioactivity, 1 h p.i., read-out: PC3-CXCR4 Tumor-to-Tissue Ratio Blood
  tissue to tissue ratio at 1 h: 11.4 ± 0.2
[1]; male, BALB/c athymic nude, mouse, PC3-CXCR4 tumor and blood, iv, total radioactivity, 2 h p.i., read-out: PC3-CXCR4 Tumor-to-Tissue Ratio Blood
  tissue to tissue ratio at 2 h: 31.1 ± 0.1
[1]; male, BALB/c athymic nude, mouse, PC3-CXCR4 tumor and bone, iv, total radioactivity, 1 h p.i., read-out: PC3-CXCR4 Tumor-to-Tissue Ratio Bone
  tissue to tissue ratio at 1 h: 28.7 ± 0.2
[1]; male, BALB/c athymic nude, mouse, PC3-CXCR4 tumor and bone, iv, total radioactivity, 2 h p.i., read-out: PC3-CXCR4 Tumor-to-Tissue Ratio Bone
  tissue to tissue ratio at 2 h: 47.2 ± 0.1
[1]; male, BALB/c athymic nude, mouse, PC3-CXCR4 tumor and kidneys, iv, total radioactivity, 1 h p.i., read-out: PC3-CXCR4 Tumor-to-Tissue Ratio Kidneys
  tissue to tissue ratio at 1 h: 4 ± 0.2
[1]; male, BALB/c athymic nude, mouse, PC3-CXCR4 tumor and kidneys, iv, total radioactivity, 2 h p.i., read-out: PC3-CXCR4 Tumor-to-Tissue Ratio Kidneys
  tissue to tissue ratio at 2 h: 5.3 ± 0.1
[1]; male, BALB/c athymic nude, mouse, PC3-CXCR4 tumor and liver, iv, total radioactivity, 1 h p.i., read-out: PC3-CXCR4 Tumor-to-Tissue Ratio Liver
  tissue to tissue ratio at 1 h: 10.8 ± 0.2
[1]; male, BALB/c athymic nude, mouse, PC3-CXCR4 tumor and liver, iv, total radioactivity, 2 h p.i., read-out: PC3-CXCR4 Tumor-to-Tissue Ratio Liver
  tissue to tissue ratio at 2 h: 10.8 ± 0.1
[1]; male, BALB/c athymic nude, mouse, PC3-CXCR4 tumor and lungs, iv, total radioactivity, 1 h p.i., read-out: PC3-CXCR4 Tumor-to-Tissue Ratio Lungs
  tissue to tissue ratio at 1 h: 11.8 ± 0.2
[1]; male, BALB/c athymic nude, mouse, PC3-CXCR4 tumor and lungs, iv, total radioactivity, 2 h p.i., read-out: PC3-CXCR4 Tumor-to-Tissue Ratio Lungs
  tissue to tissue ratio at 2 h: 17.1 ± 0.1
[1]; male, BALB/c athymic nude, mouse, PC3-CXCR4 tumor and muscle, iv, total radioactivity, 1 h p.i., read-out: PC3-CXCR4 Tumor-to-Tissue Ratio Muscle
  tissue to tissue ratio at 1 h: 56.1 ± 0.2
[1]; male, BALB/c athymic nude, mouse, PC3-CXCR4 tumor and muscle, iv, total radioactivity, 2 h p.i., read-out: PC3-CXCR4 Tumor-to-Tissue Ratio Muscle
  tissue to tissue ratio at 2 h: 101.2 ± 0.1
[1]; male, BALB/c athymic nude, mouse, PC3-CXCR4 tumor, iv, total radioactivity, 1 h p.i., read-out: Maximum PC3-CXCR4 tumor activity
  tissue uptake at 1 h: 14.6 ± 2.7 %ID/g
[2]; 2 h p.i.
  PC3-CXCR4 Tumor-to-Tissue Ratio Blood: 32.1 ± 0.1
  PC3-CXCR4 ratio to all normal tissue except kidneys: greater than 10

## c1ccc(CNCc2ccc(CN3CCCNCCNCCCNCC3)cc2)nc1 [AMD-3465, reference compound]
CXCR4 [3]
  Hill Slope, Competitive Binding Experiment: 1.01 ± 0.30

## FCCn1cc(NCc2ccc(CN3CCCNCCNCCCNCC3)cc2)nn1 [RPS-546]
CXCR4 [3]
  IC50: ~1500 nM
  Hill Slope, Competitive Binding Experiment: 0.96 ± 0.10
CXCR4 [4]
  Kd: ~1700 nM
  Hill Slope, Saturation Binding Experiment: 0.98 ± 0.19
PC3-CXCR4 cells
  Cell-Associated Activity: 1.2 ± 0.1 %IA

## FCCn1cc(CNCc2ccc(CN3CCCNCCNCCCNCC3)cc2)nn1 [RPS-547]
CXCR4 [3]
  IC50: 601 ± 118 nM
  Hill Slope, Competitive Binding Experiment: 0.97 ± 0.14
CXCR4 [4]
  Kd: 261 ± 22 nM
  Hill Slope, Saturation Binding Experiment: 1.03 ± 0.08
PC3-CXCR4 cells
  Cell-Associated Activity: 6.7 ± 2.8 %IA
[1]; 1 h p.i.
  Blood tissue activity: 0.28±0.06 %ID/g
[1]; [5]
  Blood tissue activity: 0.41±0.40 %ID/g
[1]; 2 h p.i.
  Blood tissue activity: 0.08±0.01 %ID/g
[2]; 1 h p.i.
  Bone tissue activity: 0.52±0.04 %ID/g
  Heart tissue activity: 0.18±0.04 %ID/g
  Kidneys tissue activity: 10.73 ± 1.10 %ID/g
  Large Intestine tissue activity: 0.20±0.02 %ID/g
  Liver tissue activity: 6.59±1.00 %ID/g
  Lungs tissue activity: 0.48±0.05 %ID/g
  Muscle tissue activity: 0.14±0.01 %ID/g
  PC3-CXCR4 Tumor Uptake: 3.09 ± 0.52 %ID/g
  PC3-CXCR4 Tumor-to-Tissue Ratio Blood: 10.1 ± 0.3
  PC3-CXCR4 Tumor-to-Tissue Ratio Bone: 5.9 ± 0.8
  PC3-CXCR4 Tumor-to-Tissue Ratio Kidneys: 0.3 ± 0.2
  PC3-CXCR4 Tumor-to-Tissue Ratio Liver: 0.5 ± 0.2
  PC3-CXCR4 Tumor-to-Tissue Ratio Lungs: 6.2 ± 0.8
  PC3-CXCR4 Tumor-to-Tissue Ratio Muscle: 20.3 ± 0.3
  PC3-CXCR4 Tumor-to-Tissue Ratio PC3-WT: 1.9 ± 0.3
  PC3-WT tumor activity: 1.54±0.18 %ID/g
  Pancreas tissue activity: 0.20±0.01 %ID/g
  Small Intestine tissue activity: 0.95±0.10 %ID/g
  Spleen tissue activity: 0.53±0.02 %ID/g
  Stomach tissue activity: 0.17±0.03 %ID/g
[2]; [5]
  Bone tissue activity: 0.22±0.12 %ID/g
  Heart tissue activity: 0.14±0.19 %ID/g
  Kidneys tissue activity: 4.08±1.10 %ID/g
  Large Intestine tissue activity: 0.23±0.06 %ID/g
  Liver tissue activity: 4.13±0.50 %ID/g
  Lungs tissue activity: 0.35±0.15 %ID/g
  Muscle tissue activity: 0.18±0.35 %ID/g
  PC3-CXCR4 tumor activity: 1.16±0.12 %ID/g
  PC3-WT tumor activity: 0.86±0.10 %ID/g
  Pancreas tissue activity: 0.22±0.04 %ID/g
  Small Intestine tissue activity: 0.51±0.18 %ID/g
  Spleen tissue activity: 0.12±0.03 %ID/g
  Stomach tissue activity: 0.10±0.03 %ID/g
[2]; 1 h p.i., listed as [^18F]RPS-547
  PC3-CXCR4 Tumor Uptake: 3.1 ± 0.5 %ID/g
[2]; 2 h p.i.
  Bone tissue activity: 0.31±0.02 %ID/g
  Heart tissue activity: 0.08±0.01 %ID/g
  Kidneys tissue activity: 5.60±0.56 %ID/g
  Large Intestine tissue activity: 0.19±0.12 %ID/g
  Liver tissue activity: 5.18±0.27 %ID/g
  Lungs tissue activity: 0.24±0.02 %ID/g
  Muscle tissue activity: 0.09±0.02 %ID/g
  PC3-CXCR4 Tumor-to-Tissue Ratio Blood: 24.0 ± 0.2
  PC3-CXCR4 Tumor-to-Tissue Ratio Bone: 6.3 ± 0.4
  PC3-CXCR4 Tumor-to-Tissue Ratio Kidneys: 0.3 ± 0.1
  PC3-CXCR4 Tumor-to-Tissue Ratio Liver: 0.4 ± 0.2
  PC3-CXCR4 Tumor-to-Tissue Ratio Lungs: 8.2 ± 0.4
  PC3-CXCR4 Tumor-to-Tissue Ratio Muscle: 11.0 ± 0.3
  PC3-CXCR4 Tumor-to-Tissue Ratio PC3-WT: 2.2 ± 0.2
  PC3-CXCR4 tumor activity: 2.02±0.10 %ID/g
  PC3-WT tumor activity: 0.86±0.13 %ID/g
  Pancreas tissue activity: 0.11±0.00 %ID/g
  Small Intestine tissue activity: 0.80±0.01 %ID/g
  Spleen tissue activity: 0.36±0.04 %ID/g
  Stomach tissue activity: 0.11±0.02 %ID/g
